Data taken from article PMC8300687, “A Fine-Tuned Lipophilicity/Hydrophilicity Ratio Governs Antibacterial Potency and Selectivity of Bifurcated Halogen Bond-Forming NBTIs” (Antibiotics, 2021).
Values after ≈ are worked out from the molar mass of the structure shown. Like-named read-outs stand apart in the source and are kept apart here.

Experiments:
[1] = system: E. coli (ATCC 25922); assay: MIC broth microdilution, E. coli ATCC 25922; format: cell-based
Experimental: (§1) Antimicrobial testing was carried out by the broth microdilution method in 96-well plate format following the Clinical and Laboratory Standards Institute (CLSI) guidelines and European Committee on Antimicrobial Susceptibility Testing (EUCAST) recommendations. Bacterial suspension of specific bacterial strain equivalent to 0.5 McFarland turbidity standard was diluted with cation-adjusted Mueller Hinton broth with TES (Thermo Fisher Diagnostic, Landsmeer, The Netherlands), to obtain a final inoculum of 10^5 CFU/mL. Compounds dissolved in DMSO and inoculum were mixed together and incubated for 18–20 h at 35 °C. Suspensions of Mycobacterium sp. were prepared into a tube of Middelbrook 7H9 broth supplemented with 5% OADC (Thermo Scientific, Trek Diagnostic Systems, West Sussex, UK) and incubated for at least 10 days. After incubation the minimal inhibitory concentration (MIC) values were determined by visual inspection as the lowest dilution of compounds showing no turbidity. Tetracycline was used as a positive control on every assay plate.

[2] = system: C. jejuni RDK 135 (ATCC 33560); assay: MIC broth microdilution, C. jejuni; format: cell-based
Experimental: as §1

[3] = target: T1, S. aureus Topo IV (Staphylococcus aureus, UniProt Q2FYS4); assay: biochemical; settings: for IC50: mean of two to four measurements, read-out: Topoisomerase IV IC50 S. aureus
T1 construct: purchased Inspiralis (Norwich, UK)
Experimental: (§2) A Topo IV Relaxation High Throughput Plate assay kit, purchased from Inspiralis (Norwich. UK) was used to determine IC50 values of compounds on S. aureus and E. coli. […] Biotinylated oligonucleotide in wash buffer was immobilized onto the wells, and the excess oligonucleotide was washed off with wash buffer and ultrapure water. 1.5 U of S. aureus or E. coli […] enzyme was incubated together with 0.75 μg of supercoiled pNO1 plasmid as a substrate in the presence of 3 μL inhibitor solution in 10% DMSO and 0.008% Tween 20 at 37 °C for 30 min in a final reaction volume of 30 μL in dilution buffer (50 mM Tris-HCl (pH 7.5), 1 mM DTT, 1 mM EDTA, 40% (w/v) glycerol for S. aureus and 40 mM HEPES, KOH (pH 7.6), 100 mM potassium glutamate, 1 mM DTT, 1 mM EDTA, and 40% (v/v) glycerol for E. coli). The reactions were stopped by adding the TF buffer (50 mM NaOAc (pH 4.7), 50 mM NaCl, and 50 mM MgCl2) to allow the triplex formation (biotin-oligonucleotide-plasmid) for additional 30 min. Afterward, the unbound plasmid was washed off using TF buffer, and the solution of Promega Diamond dye in T10 buffer (10 mM Tris-HCl (pH 8.0), 1 mM EDTA) was added. […] IC50 value represents the mean of two to four independent measurements.

[4] = system: E. coli (QA-11.3); assay: MIC broth microdilution, E. coli QA-11.3; format: cell-based
Experimental: as §1

[5] = system: E. coli (QA-11.8); assay: MIC broth microdilution, E. coli QA-11.8; format: cell-based
Experimental: as §1

[6] = system: MRSA (QA-11.2); assay: MIC broth microdilution, MRSA QA-11.2; format: cell-based, methicillin-resistant S. aureus; settings: Staphylococcus aureus, 20 h, read-out: MIC MRSA (QA-11.2)
Experimental: as §1

[7] = system: P. aeruginosa RDK 184 (DSM 939); assay: MIC broth microdilution, P. aeruginosa; format: cell-based
Experimental: as §1

[8] = target: T2, E. coli Topo IV (Escherichia coli, UniProt P0AFI2); assay: Topo IV Relaxation High Throughput Plate assay, E. coli; format: biochemical; settings: for LE Topo IV E. coli: LE = (1.37/HA) × pIC50
T2 construct: purchased Inspiralis (Norwich, UK)
Experimental: as §2

[9] = system: MRSA (QA-11.6); assay: MIC broth microdilution, MRSA QA-11.6; format: cell-based, methicillin-resistant S. aureus; settings: Staphylococcus aureus, read-out: MIC MRSA (QA-11.6)
Experimental: as §1

[10] = system: S. alachua RDK 030c (QA-1482/04); assay: MIC broth microdilution, S. alachua; format: cell-based
Experimental: as §1

[11] = system: S. pneumoniae (QA-10/02); assay: MIC broth microdilution, S. pneumoniae; format: cell-based; settings: Streptococcus pneumoniae
Experimental: as §1

[12] = target: T3, Human topoisomerase IIα (Homo sapiens, UniProt P11388); assay: Human topoisomerase II Alpha Relaxation High Throughput Plate assay; format: biochemical; settings: 0.5 h; residual activity of the enzyme at compound concentration 10 μM, mean ± SD; read-out: Human Topo II (% RA)
T3 construct: purchased Inspiralis (Norwich, UK)
Experimental: A Human topoisomerase II Alpha Relaxation High Throughput Plate assay kit, purchased from Inspiralis (Norwich, UK) was used to evaluate the selectivity of compounds for the bacterial enzymes over the homologous human topoisomerase II. […] Biotinylated oligonucleotide in wash buffer was immobilized onto the wells and the excess oligonucleotide was washed off with wash buffer. […] The reactions were stopped by adding the TF buffer (50 mM NaOAc (pH 4.7), 50 mM NaCl, and 50 mM MgCl2) to allow the triplex formation (biotin-oligonucleotide-plasmid) for additional 30 min. Afterward, the unbound plasmid was washed off using TF buffer, and the solution of Promega Diamond dye in T10 buffer (10 mM Tris-HCl (pH 8.0), 1 mM EDTA) was added. […] Screening was performed at inhibitor concentrations of 10 μM. Raw data were converted to mean ± SD percentage of residual activity of the enzyme obtained by two independent measurements.

[13] = Escherichia coli, ATCC25922; E. coli ATCC 25922; read-out: E. coli MIC (converted)
[14] = Escherichia coli, ATCC25922; read-out: MIC E. coli (ATCC 25922)
[15] = Campylobacter jejuni, ATCC33560; read-out: MIC C. jejuni RDK 135 (ATCC 33560)
[16] = Escherichia coli, 20 h; read-out: MIC E. coli (QA-11.3)
[17] = Escherichia coli, 20 h; read-out: MIC E. coli (QA-11.8)
[18] = resistant to cefoxitin, chloramphenicol, clindamycin, linezolid, tetracycline, thiamulin, trimethoprim
[19] = Pseudomonas aeruginosa, DSM939; read-out: MIC P. aeruginosa RDK 184 (DSM 939)
[20] = resistant to cefoxitin, gentamicin, sulfamethoxazole, tetracycline
[21] = Salmonella; read-out: MIC S. alachua RDK 030c (QA-1482/04)

T1 sequence (Q2FYS5 whole entry): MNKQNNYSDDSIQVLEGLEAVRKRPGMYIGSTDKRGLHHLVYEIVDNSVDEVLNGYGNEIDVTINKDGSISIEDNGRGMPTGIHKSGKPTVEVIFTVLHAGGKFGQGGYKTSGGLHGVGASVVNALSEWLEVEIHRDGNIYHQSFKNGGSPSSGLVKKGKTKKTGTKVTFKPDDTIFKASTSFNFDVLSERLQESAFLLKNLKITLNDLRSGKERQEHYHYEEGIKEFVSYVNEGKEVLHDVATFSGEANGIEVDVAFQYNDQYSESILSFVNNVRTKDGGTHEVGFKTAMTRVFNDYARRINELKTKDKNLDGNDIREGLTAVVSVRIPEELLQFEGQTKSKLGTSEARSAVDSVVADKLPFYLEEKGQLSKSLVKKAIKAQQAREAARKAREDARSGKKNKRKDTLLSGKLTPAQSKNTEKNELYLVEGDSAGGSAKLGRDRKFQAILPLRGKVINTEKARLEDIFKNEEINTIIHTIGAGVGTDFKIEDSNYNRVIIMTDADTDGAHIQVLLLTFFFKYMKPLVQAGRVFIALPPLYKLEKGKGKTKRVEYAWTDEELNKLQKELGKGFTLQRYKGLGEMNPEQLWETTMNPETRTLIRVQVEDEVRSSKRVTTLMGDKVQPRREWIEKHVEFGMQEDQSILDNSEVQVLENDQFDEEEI
T1 sequence (Q2FYS4 whole entry): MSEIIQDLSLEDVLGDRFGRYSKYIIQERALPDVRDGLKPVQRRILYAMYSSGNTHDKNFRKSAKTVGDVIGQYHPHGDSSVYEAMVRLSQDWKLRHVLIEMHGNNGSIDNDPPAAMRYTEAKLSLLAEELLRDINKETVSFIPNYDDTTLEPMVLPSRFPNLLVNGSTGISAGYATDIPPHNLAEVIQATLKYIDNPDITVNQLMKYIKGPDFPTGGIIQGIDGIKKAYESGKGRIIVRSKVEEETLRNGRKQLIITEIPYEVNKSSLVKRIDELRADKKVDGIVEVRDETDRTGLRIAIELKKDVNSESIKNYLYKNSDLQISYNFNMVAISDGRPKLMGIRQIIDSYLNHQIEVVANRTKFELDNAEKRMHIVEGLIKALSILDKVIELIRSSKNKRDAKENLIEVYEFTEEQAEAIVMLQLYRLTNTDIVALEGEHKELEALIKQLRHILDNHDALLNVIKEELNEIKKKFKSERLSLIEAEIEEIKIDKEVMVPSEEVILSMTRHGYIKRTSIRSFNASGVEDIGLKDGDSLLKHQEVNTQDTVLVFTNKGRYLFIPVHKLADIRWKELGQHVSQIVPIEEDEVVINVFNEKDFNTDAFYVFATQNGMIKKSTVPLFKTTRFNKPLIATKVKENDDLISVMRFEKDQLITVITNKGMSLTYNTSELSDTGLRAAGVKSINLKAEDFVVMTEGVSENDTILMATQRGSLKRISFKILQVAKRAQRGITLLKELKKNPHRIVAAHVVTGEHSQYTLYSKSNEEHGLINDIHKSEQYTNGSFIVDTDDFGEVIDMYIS
T3 sequence (P11388 whole entry): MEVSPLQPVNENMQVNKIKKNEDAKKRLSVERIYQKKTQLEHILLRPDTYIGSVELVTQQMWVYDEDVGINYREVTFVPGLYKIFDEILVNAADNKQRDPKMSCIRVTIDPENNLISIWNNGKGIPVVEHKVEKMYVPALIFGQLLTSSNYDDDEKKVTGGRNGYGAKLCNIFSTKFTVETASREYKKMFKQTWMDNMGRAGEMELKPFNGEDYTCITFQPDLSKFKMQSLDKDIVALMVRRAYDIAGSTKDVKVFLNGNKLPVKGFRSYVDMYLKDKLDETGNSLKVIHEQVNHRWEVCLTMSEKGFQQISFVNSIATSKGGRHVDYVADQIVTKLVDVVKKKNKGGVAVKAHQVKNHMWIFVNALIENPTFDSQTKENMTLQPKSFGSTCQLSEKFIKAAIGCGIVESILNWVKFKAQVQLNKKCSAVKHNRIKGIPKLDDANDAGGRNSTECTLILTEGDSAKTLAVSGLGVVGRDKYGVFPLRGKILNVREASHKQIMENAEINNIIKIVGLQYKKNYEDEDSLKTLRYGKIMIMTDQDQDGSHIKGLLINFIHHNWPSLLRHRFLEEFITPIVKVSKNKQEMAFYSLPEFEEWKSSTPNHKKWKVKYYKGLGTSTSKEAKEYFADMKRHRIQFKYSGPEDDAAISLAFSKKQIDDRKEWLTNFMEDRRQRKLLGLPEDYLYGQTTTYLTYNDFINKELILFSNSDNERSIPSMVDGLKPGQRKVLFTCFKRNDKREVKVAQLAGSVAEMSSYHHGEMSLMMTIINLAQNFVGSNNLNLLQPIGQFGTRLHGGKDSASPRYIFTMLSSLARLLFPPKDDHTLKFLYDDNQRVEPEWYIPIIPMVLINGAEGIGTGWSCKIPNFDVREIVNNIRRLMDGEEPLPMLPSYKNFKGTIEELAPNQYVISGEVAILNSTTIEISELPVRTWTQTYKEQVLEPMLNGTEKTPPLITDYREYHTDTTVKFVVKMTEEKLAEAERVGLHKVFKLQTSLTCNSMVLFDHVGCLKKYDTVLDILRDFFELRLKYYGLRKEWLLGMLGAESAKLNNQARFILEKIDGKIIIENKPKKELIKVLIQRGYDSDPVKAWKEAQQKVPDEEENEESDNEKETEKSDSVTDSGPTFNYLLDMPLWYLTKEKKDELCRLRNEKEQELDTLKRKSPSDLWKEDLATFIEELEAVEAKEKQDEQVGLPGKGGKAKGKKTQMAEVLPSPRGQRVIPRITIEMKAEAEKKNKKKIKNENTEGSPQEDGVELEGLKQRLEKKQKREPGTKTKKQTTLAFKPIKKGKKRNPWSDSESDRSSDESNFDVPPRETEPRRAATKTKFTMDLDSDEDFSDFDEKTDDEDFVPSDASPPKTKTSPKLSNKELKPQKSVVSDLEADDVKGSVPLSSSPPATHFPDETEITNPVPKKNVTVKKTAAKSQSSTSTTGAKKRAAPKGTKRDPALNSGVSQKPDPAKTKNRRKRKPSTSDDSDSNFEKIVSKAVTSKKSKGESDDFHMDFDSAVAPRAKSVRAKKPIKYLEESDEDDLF
T2 sequence (P0AFI2 whole entry): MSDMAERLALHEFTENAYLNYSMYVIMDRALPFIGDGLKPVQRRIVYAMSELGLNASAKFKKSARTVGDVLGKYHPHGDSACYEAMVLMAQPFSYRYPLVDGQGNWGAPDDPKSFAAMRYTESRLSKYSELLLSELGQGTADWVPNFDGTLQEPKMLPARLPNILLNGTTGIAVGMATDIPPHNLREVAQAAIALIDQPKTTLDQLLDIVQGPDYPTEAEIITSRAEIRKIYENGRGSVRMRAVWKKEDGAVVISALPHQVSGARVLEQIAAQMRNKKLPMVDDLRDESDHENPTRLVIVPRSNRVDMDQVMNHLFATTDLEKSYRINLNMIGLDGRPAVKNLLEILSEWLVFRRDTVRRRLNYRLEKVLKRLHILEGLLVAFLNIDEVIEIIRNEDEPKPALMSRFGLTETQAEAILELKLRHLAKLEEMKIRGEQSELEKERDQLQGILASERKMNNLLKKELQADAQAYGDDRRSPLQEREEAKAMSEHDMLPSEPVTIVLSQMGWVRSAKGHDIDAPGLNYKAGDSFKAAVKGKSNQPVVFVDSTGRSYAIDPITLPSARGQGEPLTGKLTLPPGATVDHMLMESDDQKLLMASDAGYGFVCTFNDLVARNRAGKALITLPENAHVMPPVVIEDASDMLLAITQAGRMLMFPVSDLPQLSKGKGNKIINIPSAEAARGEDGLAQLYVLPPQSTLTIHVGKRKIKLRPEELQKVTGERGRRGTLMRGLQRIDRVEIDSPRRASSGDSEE
T2 sequence (P20083 whole entry, further chain): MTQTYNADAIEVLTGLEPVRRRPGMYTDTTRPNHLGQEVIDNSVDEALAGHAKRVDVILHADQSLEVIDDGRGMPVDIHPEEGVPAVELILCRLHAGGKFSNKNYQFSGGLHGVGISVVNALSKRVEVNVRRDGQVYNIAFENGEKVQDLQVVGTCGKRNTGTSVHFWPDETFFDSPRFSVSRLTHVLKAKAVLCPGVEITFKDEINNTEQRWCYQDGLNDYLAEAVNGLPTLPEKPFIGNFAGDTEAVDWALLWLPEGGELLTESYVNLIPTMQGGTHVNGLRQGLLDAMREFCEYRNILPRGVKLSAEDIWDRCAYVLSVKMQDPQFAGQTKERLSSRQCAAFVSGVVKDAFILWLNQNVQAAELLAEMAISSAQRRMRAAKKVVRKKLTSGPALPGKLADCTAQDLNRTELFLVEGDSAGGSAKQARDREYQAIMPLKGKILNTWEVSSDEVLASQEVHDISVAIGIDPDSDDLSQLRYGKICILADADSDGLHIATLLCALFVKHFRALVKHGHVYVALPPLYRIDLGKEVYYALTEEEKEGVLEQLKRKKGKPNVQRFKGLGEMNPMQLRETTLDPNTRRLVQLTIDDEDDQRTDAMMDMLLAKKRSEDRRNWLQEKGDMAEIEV

COc1ccc2nccc(CCN3CCC(NCc4ccc(OC(F)F)c(O)c4)CC3)c2n1 [Compound 20, 2-(Difluoromethoxy)-5-((1-(2-(6-methoxy-1,5-naphthyridin-4-yl)ethyl)piperidin-4-ylamino)methyl)phenol]
MIC [1, 13]: 17.4 µM
MIC [1, 14]: 8 µg/mL
MIC [2, 15]: 0.015 µg/mL (≈ 0.0327 µM)
IC50 [3]: > 100000 nM
MIC [4, 16]: 1 µg/mL (≈ 2.18 µM)
MIC [5, 17]: 4 µg/mL (≈ 8.72 µM)
MIC [6, 18]: 1 µg/mL (≈ 2.18 µM)
MIC [7, 19]: > 128 µg/mL
IC50 [8]: 60 nM
LE Topo IV E. coli [8]: 0.30
MIC [9, 20]: 1 µg/mL (≈ 2.18 µM)
MIC [10, 21]: 64 µg/mL (≈ 140 µM)
MIC [11]: 1 µg/mL (≈ 2.18 µM)
remaining activity at 10 µM [12]: 94.8%

COc1ccc2nccc(CCN3CCC(NCc4ccc(F)cc4)CC3)c2n1 [Compound 12]
MIC [1, 13]: 81.1 µM
MIC [1, 14]: 32 µg/mL
MIC [2, 15]: 1 µg/mL (≈ 2.53 µM)
IC50 [3]: > 100000 nM
MIC [4, 16]: 8 µg/mL (≈ 20.3 µM)
MIC [5, 17]: 16 µg/mL (≈ 40.6 µM)
MIC [6, 18]: 4 µg/mL (≈ 10.1 µM)
MIC [7, 19]: > 128 µg/mL
IC50 [8]: 280 ± 30 nM
LE Topo IV E. coli [8]: 0.31
MIC [9, 20]: 4 µg/mL (≈ 10.1 µM)
MIC [10, 21]: 128 µg/mL (≈ 324 µM)
MIC [11]: 2 µg/mL (≈ 5.07 µM)
remaining activity at 10 µM [12]: 101 ± 11.2%

COc1ccc2nccc(CCN3CCC(NCc4c(C)nc5c(C)cccn45)CC3)c2n1 [Compound 6, N-((2,8-Dimethylimidazo[1,2-a]pyridin-3-yl)methyl)-1-(2-(6-methoxy-1,5-naphthyridin-4-yl)ethyl)piperidin-4-amine]
MIC ([1]; Escherichia coli, ATCC25922, 20 h, read-out: E. coli MIC in molar): 288 µM
MIC ([1]; Escherichia coli, ATCC25922, read-out: MIC E. coli (ATCC 25922)): > 128 µg/mL
MIC ([2]; Campylobacter jejuni, ATCC33560, read-out: MIC C. jejuni RDK 135 (ATCC 33560)): > 128 µg/mL
IC50 [3]: > 100000 nM
MIC ([4]; Escherichia coli, 20 h, read-out: MIC E. coli (QA-11.3)): 128 µg/mL (≈ 288 µM)
MIC ([5]; Escherichia coli, 20 h, read-out: MIC E. coli (QA-11.8)): > 128 µg/mL
MIC [6]: > 128 µg/mL
MIC ([7]; Pseudomonas aeruginosa, DSM939, read-out: MIC P. aeruginosa RDK 184 (DSM 939)): > 128 µg/mL
IC50 [8]: > 100000 nM
MIC [9]: > 128 µg/mL
MIC ([10]; Salmonella, read-out: MIC S. alachua RDK 030c (QA-1482/04)): > 128 µg/mL
MIC [11]: > 128 µg/mL
remaining activity at 10 µM [12]: 99.4 ± 9.93%

COc1ccc2nccc(CCN3CCC(NCc4ccc(CO)cc4)CC3)c2n1 [Compound 16]
MIC [1, 13]: 315 µM
MIC [1, 14]: 128 µg/mL
MIC [2, 15]: 32 µg/mL (≈ 78.7 µM)
IC50 [3]: > 100000 nM
MIC [4, 16]: 32 µg/mL (≈ 78.7 µM)
MIC [5, 17]: 128 µg/mL (≈ 315 µM)
MIC [6, 18]: 8 µg/mL (≈ 19.7 µM)
MIC [7, 19]: > 128 µg/mL
IC50 [8]: 1210 ± 50 nM
LE Topo IV E. coli [8]: 0.27
MIC [9, 20]: 4 µg/mL (≈ 9.84 µM)
MIC [10, 21]: > 128 µg/mL
MIC [11]: 2 µg/mL (≈ 4.92 µM)
remaining activity at 10 µM [12]: 97.7 ± 1.08%

COc1ccc2nccc(CCN3CCC(NCc4cnn(C(C)C)c4)CC3)c2n1 [Compound 9, N-((1-Isopropyl-1H-pyrazol-4-yl)methyl)-1-(2-(6-methoxy-1,5-naphthyridin-4-yl)ethyl)piperidin-4-amine]
MIC [1, 13]: 19.6 µM
MIC [1, 14]: 8 µg/mL
MIC [2, 15]: 0.5 µg/mL (≈ 1.22 µM)
LE Topo IV S. aureus ([3]; LE = (1.37/HA) × pIC50): 0.20
IC50 [3]: 40380 ± 90 nM
MIC [4, 16]: 4 µg/mL (≈ 9.79 µM)
MIC [5, 17]: 8 µg/mL (≈ 19.6 µM)
MIC [6, 18]: 1 µg/mL (≈ 2.45 µM)
MIC [7, 19]: > 128 µg/mL
IC50 [8]: 230 nM
LE Topo IV E. coli [8]: 0.30
MIC [9, 20]: 1 µg/mL (≈ 2.45 µM)
MIC [10, 21]: 64 µg/mL (≈ 157 µM)
MIC [11]: 0.5 µg/mL (≈ 1.22 µM)
remaining activity at 10 µM [12]: 101 ± 6.82%
